# From patent US20180289692A1, “TLR MODULATORS AND METHODS OF USE” (CELGENE CORPORATION, priority 2015, published 2018)
# Oligonucleotides are written 5' to 3', each unit as a sugar letter and its base; * is a phosphorothioate linkage, no mark a phosphodiester; rarer units and linkages stand in square brackets, end groups in braces. Plain capitals give the bases only. d = 2'-deoxy (DNA); m = 2'-O-methyl
# Key:
# human pDCs [1] = assay: Surface ICOS-L and PD-L1 expression in CCR6+CD123+ human pDCs by FACS; type: cell-based; conditions: for increase of COMPOUND (I) induced ICOS-L expression by HCQ: primary human pDCs; for PD-L1 protein induction: 24 hrs, FIG. 2B
# Protocol: To evaluate surface ICOS-L, PD-L1 expression in the CCR6+CD123+ pDC cell subsets, PBMCs were incubated on ice in the presence of Fc-Block (BD Pharmingen) for 20 minutes, washed, and incubated with antibodies specific for surface molecules or isotype-matched control mAbs. APC-labeled anti-human ICOS-L mAb were purchased from BioLegend, PECY-7-labeled anti-human CCR6 mAb, FITC-labeled anti-human PD-L1 mAb and PerCP-Cy5.5 labeled anti-human CD123 mAb were purchased from BD Biosciences. The stained cells were then subjected to FACS (FACSCanto, BD Biosciences) using FACSDiva software. FACS analysis was performed using FlowJo software. Single, viable cells in the CCR6+CD123+ pDC gates were analyzed. The flow cytometric results are expressed as the percentage and MFI of ICOSL-, or PD-L1-expressing cells in each gate.
# pDCs were isolated and ICOS-L expression was analyzed as described in Example 2.
# TLR9 = molecular target: T1, TLR9 (Homo sapiens, UniProt Q9NR96); assay: NF-κB reporter gene in recombinant TLR9-expressing HEK293 cells; type: cell-based; conditions: TLR9-expressing HEK293 cells, FIG. 16A
# T1 construct: expressed in transfected cells; host or cells: TLR9 expressing HEK293 reporter cells with a human NF-κB reporter construct
# T1 sequence (Q9NR96 26-1032): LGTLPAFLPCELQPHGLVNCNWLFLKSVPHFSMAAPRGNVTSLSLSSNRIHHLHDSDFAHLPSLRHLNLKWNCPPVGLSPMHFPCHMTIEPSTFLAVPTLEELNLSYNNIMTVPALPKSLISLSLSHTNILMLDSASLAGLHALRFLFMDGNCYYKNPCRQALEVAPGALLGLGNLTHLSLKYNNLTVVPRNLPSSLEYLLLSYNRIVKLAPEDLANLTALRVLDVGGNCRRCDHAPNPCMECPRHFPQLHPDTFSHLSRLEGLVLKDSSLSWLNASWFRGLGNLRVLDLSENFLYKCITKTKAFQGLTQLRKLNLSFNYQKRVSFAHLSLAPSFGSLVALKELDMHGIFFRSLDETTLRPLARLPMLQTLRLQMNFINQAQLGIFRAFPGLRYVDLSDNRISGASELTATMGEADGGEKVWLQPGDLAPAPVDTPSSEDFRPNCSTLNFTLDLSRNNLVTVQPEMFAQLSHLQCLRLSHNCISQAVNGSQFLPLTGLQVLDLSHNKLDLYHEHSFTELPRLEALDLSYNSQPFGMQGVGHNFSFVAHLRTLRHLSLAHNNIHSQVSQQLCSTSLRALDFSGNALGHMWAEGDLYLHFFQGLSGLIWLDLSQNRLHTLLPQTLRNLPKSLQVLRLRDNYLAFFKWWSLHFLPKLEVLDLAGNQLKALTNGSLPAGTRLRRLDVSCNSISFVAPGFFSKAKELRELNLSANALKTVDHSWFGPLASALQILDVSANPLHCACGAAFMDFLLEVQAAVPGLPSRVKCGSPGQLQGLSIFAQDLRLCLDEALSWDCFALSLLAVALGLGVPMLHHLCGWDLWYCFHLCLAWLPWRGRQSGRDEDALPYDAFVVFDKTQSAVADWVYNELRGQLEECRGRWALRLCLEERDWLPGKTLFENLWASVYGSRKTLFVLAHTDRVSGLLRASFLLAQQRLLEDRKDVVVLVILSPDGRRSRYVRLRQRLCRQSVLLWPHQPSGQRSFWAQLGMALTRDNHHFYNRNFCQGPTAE
# Protocol: FIGS. 16A-B show results of experiments in which recombinant TLR-expressing HEK293 cells carrying an NF-κB reporter gene were incubated with COMPOUND(I), ODN150, ODN2006, or ODN7040 for 48 hours at the indicated concentrations.
# human PBMCs [2] = assay: Cytokine production by human PBMCs treated with ODNs, MagPix Multi-Plex; type: cell-based; conditions: for IFN-γ / IL-1β / IL-6 / IL-10 / IL-12p40 / IP10 / TNF-α: human PBMC, 24 hrs
# Protocol: PBMC from 3 donors were isolated from Buffy Coat (Blood Center of NY). The cells were washed with PBS and re-suspended in RPMI-1640 Media with 5% Human AB Serum, 1% Pen/Strep and 2 mM L-glutamine. The cells were then plated in 96-well plates at 250,000 cells/well. […] After 24 hrs, the supernatant was harvested and tested for cytokine production using MagPix Multi-Plex Technology. The following cytokines were tested: IL-6, IL-10, IL-12p40, IFN-α, IFN-γ, IP-10, IL-1β and TNF-α.
# [3] = system: canonical NF-κB promoter reporter; assay: Mouse Raw Blue Reporter Cells, SEAP reporter driven by canonical NF-κB promoter (FIG. 11); type: cell-based; conditions: mouse macrophages, 24 hrs; for activation of canonical NF-κB reporter: SEAP, COMPOUND (I) up to 10 μM
# Protocol: Mouse Raw Blue Reporter Cells (Invivogen), containing a secreted embryonic alkaline phosphatase (SEAP) reporter gene driven by canonical NF-κB promoter, were plated in 96-well plates at 50,000 cells/well in DMEM Media supplemented with 10% FBS, 2 mM L-glutamine, 1% Pen/Strep, […] Normacin. […] The supernatant was harvested and tested for SEAP production by measuring OD at 630 nm.
# human pDCs [4] = assay: Intracellular IL-10, TGF-β1 and IDO expression in CCR6+CD123+ human pDCs by FACS; type: cell-based; conditions: 24 hrs, FIG. 2A
# Text: To evaluate intracellular IL-10, TGFβ 1 and IDO expression in human pDCs, the cells were first stained with PECY-7-labeled anti-human CCR6 mAb (BD Biosciences), PerCP-Cy5.5 labeled anti-human CD123 mAb (BD Biosciences). Stained cells were then fixed and permeabilized using a Cytofix/Cytoperm kit (BD Biosciences) according to the manufacturer's instructions and stained with PE-labeled anti-human IDO (Biolegend), APC-labeled anti-human IL-10 mAb and FITC-labeled anti-human TGF-β1 (BD Biosciences), or isotype-matched control mAbs. The stained cells were acquired by FACSCanto using the FACSDiva software. FACS analysis was performed using FlowJo software. Single, viable cells in the CCR6+CD123+ pDC gates were analyzed. The flow cytometric results are expressed as the percentage and MFI of IL-10-, TGF-β1- or IDO-expressing cells in each gate. Results are expressed as the mean±SEM of cells quantified.
# IL10 was alternatively measured in cellular supernatants by ELISA using standard protocols.
# human PBMCs [5] = assay: IL-1β secretion from human PBMCs by ELISA (inflammasome activation); type: cell-based; conditions: 24 hours, FIG. 15
# [6] = system: canonical NF-κB promoter reporter; assay: Canonical NF-κB promoter reporter construct in RAW264.7 macrophage cells (FIG. 10); type: cell-based, mouse; conditions: 24 hrs
# Protocol: Mouse RAW264.7 macrophage cells containing a reporter construct driven by a canonical NF-κB promoter were plated in 96-well plates at 50,000 cells/well. […] The supernatant was harvested and tested for optical density.
# mouse macrophages = assay: TNFα and IL-10 production in mouse macrophages (Raw Blue cells), MagPix; type: cell-based; conditions: 24 hrs
# Protocol: Mouse Raw Blue Reporter Cells (Invivogen) were plated in 96-well plates at 50,000 cells/well in DMEM Media supplemented with 10% FBS, 2 mM L-glutamine, 1% Pen/Strep, […] Normacin. […] The supernatant was harvested and tested for TNFα and IL-10 production using MagPix Multi-Plex technology.
Compound,IFN-γ (human PBMCs [2]; high-dose ODN 10 μM) [pg/mL],IL-1β (human PBMCs [2]; high-dose ODN 10 μM) [pg/mL],IL-6 (human PBMCs [2]; high-dose ODN 10 μM) [fold change],IL-10 (human PBMCs [2]; high-dose ODN 10 μM) [fold change],IL-12p40 (human PBMCs [2]; high-dose ODN 10 μM) [pg/mL],IP10 (human PBMCs [2]; high-dose ODN 10 μM) [fold change],TNF-α (human PBMCs [2]; high-dose ODN 10 μM) [fold change],IFN-γ (human PBMCs [2]; low-dose ODN 0.1 μM) [pg/mL],IL-1β (human PBMCs [2]; low-dose ODN 0.1 μM) [pg/mL],IL-6 (human PBMCs [2]; low-dose ODN 0.1 μM) [fold change],IL-10 (human PBMCs [2]; low-dose ODN 0.1 μM) [fold change],IL-12p40 (human PBMCs [2]; low-dose ODN 0.1 μM) [pg/mL],IP10 (human PBMCs [2]; low-dose ODN 0.1 μM) [fold change],TNF-α (human PBMCs [2]; low-dose ODN 0.1 μM) [fold change],activation of canonical NF-κB reporter [3],TGF-β1 protein induction (human pDCs [4]),PD-L1 protein induction (human pDCs [1]; human pDCs),also measured
"CCN(CCO)CCCC(C)Nc1ccnc2cc(Cl)ccc12 (stereo not shown) [HCQ, hydroxychloroquine]",,,,,,,,,,,,,,,,,,"increase of COMPOUND (I) induced ICOS-L expression by HCQ (human pDCs [1]; HCQ 10 μM + COMPOUND (I) 1 μM, FIG. 6A): 7.3 fold; increase of COMPOUND (I) induced ICOS-L expression by HCQ (human pDCs [1]; HCQ 10 μM + COMPOUND (I) 1 μM, FIG. 6B): 2.0 fold; increase of COMPOUND (I) induced ICOS-L expression by HCQ (human pDCs [1]; HCQ 10 μM + COMPOUND (I) 10 μM, FIG. 6A): 7.1 fold; increase of COMPOUND (I) induced ICOS-L expression by HCQ (human pDCs [1]; HCQ 10 μM + COMPOUND (I) 10 μM, FIG. 6B): 1.9 fold; ICOS-L expression, agent alone (human pDCs [1]; human pDCs, COMPOUND (I) 1 μM and 10 μM by itself, HCQ 10 μM alone): did not induce measurable levels; effect on COMPOUND (I) activity on NF-κB reporter gene (TLR9): inhibited"
"ODN150C: 5′-G*G*A*ACAGTTAGTCCATa*G*G*C-3′, PO except * = PS; control lacking CG-dinucleotide sequences (DNA GGAACAGTTAGTCCATGGC; listed as DNA, chemistry not fully specified)",0.1,0.3,1.4,1,0,1.5,1.4,0.1,0.2,1.2,1,0,1,1.2,did not activate,,,
"ODN301C: 5′-GTAGCCCCATCACCCAGCAGC-3′, fully PS, GC-containing (DNA dG*dT*dA*dG*dC*dC*dC*dC*dA*dT*dC*dA*dC*dC*dC*dA*dG*dC*dA*dG*dC)",0,1.9,3.3,1,0.8,0.25,2.8,0,0.1,1.3,1,0,1.1,1.1,,can induce,can induce,"IFNα secretion from PBMCs (human PBMCs [2]; any tested concentration between 0.01 μM and 10 μM, FIG. 25): not found to induce; IL-1β induction (human PBMCs [5]): induce"
"ODN302: 5′-GTCGCTCTTCTCCTCCGCCAG-3′, fully PS; scrambled (non-SMAD7 AON) control sequence with two CG sequences (DNA dG*dT*dC*dG*dC*dT*dC*dT*dT*dC*dT*dC*dC*dT*dC*dC*dG*dC*dC*dA*dG)",9.7,3.9,41,1.5,5.2,4.4,9.3,1.5,0.2,19,1.5,0.7,13.9,2.4,,can induce,can induce,activation of the NF-κB construct ([6]; 0.1-100 μM): Moderate activation; ODN concentration at which activation of the NF-κB construct was observed [6]: about 1 μM
ODN1826,,,,,,,,,,,,,,,potent activator,,,"concentration from which the NF-κB reporter is activated [3]: ≤ 0.01 µM; TNFα protein expression (mouse macrophages; FIG. 12, COMPOUND (I) up to 10 μM): induce; IL-10 protein expression (mouse macrophages; FIG. 13, COMPOUND (I) up to 10 μM): induce"
"ODN7040C: 5′-CTGCCAAGTTCACCTGCA*C*C*-3′, PO; * = 2′OMe; control lacking CG-dinucleotide sequences (DNA dCdTdGdCdCdAdAdGdTdTdCdAdCdCdTdGdCmAmCmC)",0.2,0.5,2.1,1,0.1,1.4,1.4,0.2,0.6,1.2,1,0.1,1.1,1.1,did not activate,,,
